Experimental data from PubChem BioAssay AID1035470 (Broad Institute, 2014).
Results filed as inconclusive are left out. The source made the active and inactive calls.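 The calls were made as follows: active = compound lowering the normal-ribosome reporter at least twice as much as the humanized-ribosome reporter, growth loss under a set limit; inconclusive = no clear call, values can overlap the other calls; inactive = the rest.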

System: E. coli WT-GFP vs G2058-humanized RFP, fluorescence, 24 h
Experiment: growth inhibition of wild-type GFP E. coli versus G2058-humanized strain, dose response, G2058 mutant RFP vs wild-type GFP, cherry-pick, two tests (AID 1035470)
[1] = E. coli WT-GFP vs G2058-humanized RFP mixed culture, total growth OD600, 24 h
[2] = measured here: G2058 humanized mutant RFP growth

## COc1ccc(-c2csc(NC(=O)c3ccccc3S(C)(=O)=O)n2)cc1
  AC50: > 100 µM (inactive)
[1]
  AC50: > 100 µM
[2]
  AC50: > 100 µM

## Cc1nn2c(NCc3ccccn3)cc(C(C)C)nc2c1-c1ccccc1
[1]
  AC50: > 100 µM

## Cc1cc(C(=O)NCCC2=CCCCC2)ccc1[N+](=O)[O-]
  AC50: > 100 µM (inactive)
[1]
  AC50: > 100 µM

## COc1ccc2cc(CO)c3cc(OC)c(OC)cc3c2c1
[1]
  AC50: > 100 µM
[2]
  AC50: > 100 µM

## COc1ccc(N(CCC(=O)O)S(=O)(=O)c2ccc(C)cc2C)cc1
  AC50: > 100 µM (inactive)
[1]
  AC50: > 100 µM

## CSCCC1NC(=O)N(C(C)C(=O)Nc2cc(Cl)cc(Cl)c2)C1=O (stereo unspecified)
  AC50: > 100 µM (inactive)
[1]
  AC50: > 100 µM
[2]
  AC50: 7.38 µM

## Cc1cccc(-c2ccc([C@@H]3[C@@H](CO)N4CCCCN(S(=O)(=O)c5ccccc5C)C[C@H]34)cc2)c1
[1]
  AC50: > 100 µM

## Cc1ccccc1NS(=O)(=O)c1cc(C(=O)NCCC2=CCCCC2)ccc1C
  AC50: > 100 µM (inactive)

## CCC(=O)Nc1nc2c(OC)ccc(OC)c2s1
  AC50: > 100 µM (inactive)

## CN(C)S(=O)(=O)c1cccc(C(=O)Nc2ccc(C(=O)Nc3cccc(S(N)(=O)=O)c3)cc2)c1
  AC50: > 100 µM (inactive)

## Brc1ccccc1Cn1c(-c2cncs2)nc2ccccc21
  AC50: > 100 µM (inactive)
[1]
  AC50: > 100 µM
[2]
  AC50: > 100 µM

## CC(=O)Nc1nc(C)c(-c2csc(Nc3ccccn3)n2)s1
  AC50: > 100 µM (inactive)

## CCCCc1ccc(S(=O)(=O)Nc2ccc(C)c(NS(C)(=O)=O)c2)cc1
  AC50: > 100 µM (inactive)

## COc1ccc(OC)c(NC(=O)CN(C)CC(=O)Nc2ccccc2Br)c1
[1]
  AC50: > 100 µM

## O=S(=O)(c1ccc(Cl)cc1)N1CCN=C1SCc1cccc(Cl)c1
  AC50: > 100 µM (inactive)

## Nc1ccccc1C#CC(=O)c1ccccc1
[1]
  AC50: 49 µM

## COc1cccc(NC(=O)c2ccc(NCCCN3CCC(C)CC3)c([N+](=O)[O-])c2)c1
[2]
  AC50: 28.4 µM

## O=C(Nc1ccc2nc(-c3ccccc3)[nH]c2c1)c1cccs1
  AC50: > 100 µM (inactive)
[1]
  AC50: 51.4 µM

## COc1ccccc1-c1cc2nc(NCCc3ccncc3)ccn2n1
  AC50: > 100 µM (inactive)
[1]
  AC50: > 100 µM

## CC1CCCN(c2ccc(C(=O)NCCc3ccccc3)cn2)C1 (stereo unspecified)
  AC50: > 100 µM (inactive)

## COC(=O)c1ccc(C(=O)Nc2ccc3nc(-c4ccncc4)[nH]c3c2)cc1
  AC50: > 100 µM (inactive)
[1]
  AC50: > 100 µM

## COC(=O)c1ccc(CCc2cc(O)c(Br)cc2O)cc1
[1]
  AC50: > 100 µM

## COc1cc(OC)c(NS(=O)(=O)c2cccc(C(=O)OCC(=O)NCC3CCCO3)c2)cc1Cl (stereo unspecified)
[1]
  AC50: > 100 µM

## Cc1cccc(-c2ccc([C@H]3[C@H](CO)N4CCCCN(S(=O)(=O)c5ccccc5C)C[C@@H]34)cc2)c1
  AC50: > 100 µM (inactive)
[1]
  AC50: > 100 µM

## O=C(C[n+]1ccc(Cc2ccccc2)cc1)Nc1ccc([N+](=O)[O-])cc1Cl
[2]
  AC50: > 100 µM

## COC(=O)c1sc(C(C)(C)C)cc1CS(=O)(=O)c1ccc(Cl)cc1
  AC50: > 100 µM (inactive)
[1]
  AC50: > 100 µM

## Cc1cccc(SCC(=O)Nc2ccccc2[N+](=O)[O-])c1
  AC50: > 100 µM (inactive)
[1]
  AC50: > 100 µM

## O=C(NC1CCCC(C(F)(F)F)C1)c1ccc([N+](=O)[O-])o1 (stereo unspecified)
  AC50: > 100 µM (inactive)

## COc1ccc(-c2csc(NC(=O)c3ccoc3C)n2)cc1
[1]
  AC50: > 100 µM

## CCOC(=O)c1cccc(OS(=O)(=O)Cc2ccccc2)c1
[1]
  AC50: > 100 µM

## CCn1cc(Br)c(C(=O)Nc2ccc(C(=O)OC(C)C)cc2)n1
  AC50: > 100 µM (inactive)

## C[C@@H]1CN([C@@H](C)CO)C(=O)c2cc(NC(=O)Nc3cccc4ccccc34)ccc2O[C@@H](C)CCCCO[C@H]1CN(C)C(=O)CCCN(C)C
  AC50: > 100 µM (inactive)

## O=C(Nc1cccc(Cl)c1)N1C[C@@H]2[C@H](c3ccccc31)[C@@H](CO)N2C(=O)c1cccnc1
[2]
  AC50: > 100 µM

## Cc1ccc(-c2nc3ccc(NS(=O)(=O)c4ccccc4)cc3[nH]2)o1
  AC50: > 100 µM (inactive)

## CCOc1ccccc1OCCCC(=O)N1CCN(S(=O)(=O)c2cc(F)ccc2F)CC1
  AC50: > 100 µM (inactive)

## O=C(Nc1cccc(S(=O)(=O)c2cccc(NC(=O)C3CC3)c2)c1)C1CC1
[1]
  AC50: > 100 µM

## CSc1ccccc1C(=O)NCCc1ccc(S(=O)(=O)N2CCCCC2)cc1
  AC50: > 100 µM (inactive)

## CC(C)(C)S(=O)(=O)Cc1nc(-c2ccc(Cl)c(Cl)c2)cs1
[2]
  AC50: 38.5 µM

## CC(=O)CSc1ccc(-c2nc3ccccc3[nH]2)cn1
  AC50: > 100 µM (inactive)
[1]
  AC50: > 100 µM

## CCOc1cccc(-c2cc(-c3n[nH]c(=S)n3CC)c3ccccc3n2)c1
  AC50: > 100 µM (inactive)

## Cc1ccccc1OCc1nc2ccccc2n1C
  AC50: > 100 µM (inactive)

## O=C(CN(c1ccc(F)cc1)S(=O)(=O)c1ccccc1)Nc1ccccc1C(=O)O
[1]
  AC50: > 100 µM

## CC(C)Oc1ccc(C(CC(=O)O)NC(=O)C(Sc2ccccc2)c2ccccc2)cc1 (stereo unspecified)
  AC50: > 100 µM (inactive)

## COc1ccc(-c2nc3c(C)cc(Br)cn3c2Cc2ccc(C)cc2)cc1OC
  AC50: > 100 µM (inactive)

## O=C(O)CCn1c(SCc2cccc3ccccc23)nc2ccccc21
  AC50: > 100 µM (inactive)
[1]
  AC50: > 100 µM

## COc1ccc(-c2nc3ccc(Cl)cn3c2Cc2cccc(F)c2)cc1OC
  AC50: > 100 µM (inactive)

## COc1ccc(Oc2ccc(C(F)(F)F)cc2NC(=O)CC(CC(=O)O)c2ccccc2)cc1 (stereo unspecified)
  AC50: > 100 µM (inactive)
[1]
  AC50: > 100 µM

## COc1ccc(-n2c(-c3ccc(C)cc3)nc3ccccc3c2=O)cc1
  AC50: > 100 µM (inactive)

## COC(C(=O)Nc1ccnn1C1CCN(Cc2ccc(Cl)s2)CC1)c1ccccc1 (stereo unspecified)
  AC50: > 100 µM (inactive)
[2]
  AC50: > 100 µM

## CCOC(=O)c1c(NC(=O)CN2CCC(C)CC2)sc(C)c1C
  AC50: > 100 µM (inactive)

## Cc1cccc(CSCC(=O)N2CCN(S(=O)(=O)c3ccccc3C#N)CC2)c1
  AC50: > 100 µM (inactive)

## CCN(CC)CC(=O)Nc1ccc(-c2ccc(NC(=O)CN(CC)CC)c(OC)c2)cc1OC
  AC50: > 100 µM (inactive)
[1]
  AC50: > 100 µM

## C[C@@H]1CCCCO[C@@H](CN(C)C)[C@H](C)CN([C@@H](C)CO)C(=O)c2cc(NC(=O)Nc3cccc4ccccc34)ccc2O1
[1]
  AC50: > 100 µM

## Cn1nc(C(C)(C)C)c([N+](=O)[O-])c1C(=O)Nc1ccc(Br)cc1
  AC50: > 100 µM (inactive)

## O=C(Nc1ccc(F)c(Cl)c1)C1CC2CCC1C2 (stereo unspecified)
  AC50: > 100 µM (inactive)

## CCOC(=O)C1(CCCc2ccccc2)CCN(C(=O)CCn2cncn2)CC1
  AC50: > 100 µM (inactive)

## CCOc1ccc(CN(C)C(=O)c2ccc(NS(=O)(=O)c3ccc4[nH]c(=O)[nH]c4c3)cc2)cc1
[1]
  AC50: > 100 µM

## COc1cc(NC(=O)COC(=O)CC(C)(C)C)c(C)cc1[N+](=O)[O-]
  AC50: > 100 µM (inactive)
[1]
  AC50: > 100 µM

## N#Cc1ccc(OCC(=O)N2CCN(S(=O)(=O)c3ccc(Cl)s3)CC2)cc1
  AC50: > 100 µM (inactive)

## Cc1cccc(NC(=O)c2sc3nc(-c4ccccc4)cn3c2C)n1
  AC50: > 100 µM (inactive)
[1]
  AC50: > 100 µM

## COc1ccc(OC)c(S(=O)(=O)Nc2cccc3ccc(O)cc23)c1
  AC50: > 100 µM (inactive)

## CC[N+](CC)(CC#Cc1ccccc1)CC#Cc1ccccc1
  AC50: > 100 µM (inactive)
[1]
  AC50: > 100 µM

## COC(=O)c1ccsc1NC(=O)c1cccc(OC)c1
[2]
  AC50: 5.79 µM

## COc1ccc(-c2cn3c(C)c(C(=O)Nc4cccc(C)n4)sc3n2)cc1
  AC50: > 100 µM (inactive)
[1]
  AC50: > 100 µM

## CC1CCCCN1CC(O)COCCC12CC3CC(CC(C3)C1)C2 (stereo unspecified)
  AC50: > 100 µM (inactive)
[1]
  AC50: > 100 µM

## CCc1ccc2nc(N(CCCN(C)C)C(=O)c3ccc4c(c3)OCCO4)sc2c1
  AC50: > 100 µM (inactive)
[1]
  AC50: > 100 µM

## CCN(CC)CCn1c(SCC(=O)Nc2cccc(OC)c2)nc2c(sc3ccccc32)c1=O
  AC50: > 100 µM (inactive)
[1]
  AC50: > 100 µM

## CCOCCCNC(=O)C(NC(=O)c1ccccc1O)c1ccc(C)cc1 (stereo unspecified)
[1]
  AC50: > 100 µM

## COCCn1c(SCC(=O)Nc2ccccc2OC)nc2ccccc21
  AC50: > 100 µM (inactive)

## COc1ccc(OC2C(=O)N(Cc3ccc4c(c3)OCO4)C2c2sccc2C)cc1 (stereo unspecified)
  AC50: > 100 µM (inactive)
[1]
  AC50: > 100 µM

## CCOc1ccc(S(=O)(=O)N(C)c2ccc(OCC(=O)NCc3cccnc3)cc2)cc1
  AC50: > 100 µM (inactive)
[1]
  AC50: > 100 µM

## O=C(c1ccccc1)C1Oc2ccccc2C2CC(c3cccs3)=NN12 (stereo unspecified)
  AC50: > 100 µM (inactive)

## CCN(CC)C(=O)c1sc2nc(-c3ccccc3)ccc2c1N
  AC50: > 100 µM (inactive)
[2]
  AC50: > 100 µM

## Cc1ccc(CNS(=O)(=O)c2ccc3c(c2)NC(=O)CS3)cc1
  AC50: > 100 µM (inactive)

## CC1Cc2ccccc2N1C(=O)CN1C(=O)NC(C)(CCc2ccccc2)C1=O (stereo unspecified)
[1]
  AC50: > 100 µM

## Cc1ccc(-c2nc(CN3CCCCC3c3cccc(F)c3)c(C)o2)o1 (stereo unspecified)
[1]
  AC50: > 100 µM

## NC(=O)c1ccsc1NC(=O)COC(=O)Cc1ccc(F)cc1
  AC50: > 100 µM (inactive)
[2]
  AC50: > 100 µM

## CN(C)C(CNS(=O)(=O)c1cc([N+](=O)[O-])ccc1Cl)c1ccco1 (stereo unspecified)
  AC50: > 100 µM (inactive)

## Cc1ccccc1-n1c([C@@H]2C[C@H]2c2ccccc2)n[nH]c1=S
[1]
  AC50: > 100 µM

## COc1ccc(NC(=O)c2sccc2-n2cccc2)cc1
  AC50: > 100 µM (inactive)
[1]
  AC50: > 100 µM

## CC[n+]1c(C)cc2c(sc3ccccc32)c1C
[1]
  AC50: > 100 µM
[2]
  AC50: > 100 µM

## CC(C)(C)N(Cc1ccccc1)C(=O)COC(=O)Cn1cnc2ccccc2c1=O
[1]
  AC50: > 100 µM

## COc1ccc(CNc2cc([N+](=O)[O-])ccc2OC)cc1
  AC50: > 100 µM (inactive)
[1]
  AC50: > 100 µM
[2]
  AC50: > 100 µM

## O=C(COC(=O)C1CC2C=CC1C2)Nc1ccc([N+](=O)[O-])cc1 (stereo unspecified)
[1]
  AC50: > 100 µM
[2]
  AC50: > 100 µM

## C[C@@H]1CN([C@@H](C)CO)C(=O)c2cccc(NC(=O)c3nc4ccccc4s3)c2O[C@@H]1CN(C)CC1CC1
[1]
  AC50: > 100 µM

## COc1ccc(C(=O)N(c2ccccc2)c2nccc3ccccc23)cc1OC
  AC50: > 100 µM (inactive)

## CCN(C(=O)CSc1cc(C)c2ccc(OC)cc2n1)C1CCS(=O)(=O)C1 (stereo unspecified)
  AC50: > 100 µM (inactive)
[2]
  AC50: 3.93 µM

## CC1CCCC(NC(=O)COC(=O)Cc2c[nH]c3ccccc23)C1C (stereo unspecified)
  AC50: > 100 µM (inactive)
[1]
  AC50: > 100 µM
